Results as given in patent US20230303552A1, “ARYLSULFONYL DERIVATIVES AND THEIR USE AS MUSCARINIC ACETYLCHOLINE RECEPTOR M5 INHIBITORS” (Vanderbilt University, priority 2020, published 2023).

Target: T1, human M5 receptors (hM5) (Homo sapiens, UniProt P08912)
T1 construct: expressed in transfected cells
T1 sequence (P08912 1-532): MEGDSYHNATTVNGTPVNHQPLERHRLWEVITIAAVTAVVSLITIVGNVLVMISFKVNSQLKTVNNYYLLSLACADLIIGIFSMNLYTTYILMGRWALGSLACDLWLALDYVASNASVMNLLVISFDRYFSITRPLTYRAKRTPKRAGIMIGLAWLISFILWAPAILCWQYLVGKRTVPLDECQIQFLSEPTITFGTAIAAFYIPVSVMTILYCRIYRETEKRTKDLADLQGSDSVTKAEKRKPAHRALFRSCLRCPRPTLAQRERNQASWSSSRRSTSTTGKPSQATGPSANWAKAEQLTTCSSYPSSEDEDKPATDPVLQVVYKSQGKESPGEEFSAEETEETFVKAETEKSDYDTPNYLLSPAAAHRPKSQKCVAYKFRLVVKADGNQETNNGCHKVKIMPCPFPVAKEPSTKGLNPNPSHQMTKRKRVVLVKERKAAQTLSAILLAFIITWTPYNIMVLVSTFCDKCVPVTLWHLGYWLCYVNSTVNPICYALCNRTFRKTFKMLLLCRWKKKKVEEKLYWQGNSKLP
Experiment: Cell-based functional calcium mobilization assay of mAChR M5 activity (inhibition of EC80 acetylcholine response) in CHO cells
Details: CHO cells stably expressing hM5; for IC50: calcium flux (Fluo-4), EC80 acetylcholine addition; for EC80 MIN: minimum of EC80 acetylcholine response, normalized to maximum acetylcholine response
Description: All functional cell-based assays were performed essentially as previously described (Marlo et al., Mol.Pharm. 2009, 75(3), 577-588; Brady et al., J. Pharm. & Exp. Ther. 2008, 327, 941-953). Initial, single point (10 µM) competitive and non-competitive inhibitor characterization was performed in stable Chinese Hamster Ovary (CHO) cell lines constitutively expressing human M5 receptors. These were plated at 15,000 cells per 20 µL per well in Greiner 384-well black-walled, TC-treated, clear-bottomed plates (Fisher) in Ham’s F12 medium supplemented with 10% FBS and 20 mM HEPES. Cells were incubated overnight at 37° C. under 5% CO2. The following day, medium was exchanged with assay buffer (Hank’s Balanced Salt Solution supplemented with 20 mM HEPES and 2.5 mM Probenecid, pH 7.4) leaving 20 µL of assay buffer in each well. This was followed by the addition of 20 µL of 2.3 µM of Fluo-4 AM (Invitrogen) in assay buffer (final concentration 1.15 µM). The cells were then incubated 50 minutes at 37° C. under 5% CO2. The assay buffer plus dye was then exchanged with fresh assay buffer leaving a volume of 20 µL in each well. Test compounds were diluted into assay buffer to a 2X (20 µM) concentration in 0.2% dimethylsulfoxide (DMSO) in columns 3 - 22 with matching DMSO concentration in columns 1, 2, 23, and […]; compounds were added to the assay for a final concentration of 10 µM and a final DMSO concentration of 0.1%. Acetylcholine (Sigma-Aldrich) was prepared to provide 5X concentrations of EC20, EC80, and ECmax in the triple-addition assay, providing a signal window to view agonism, potentiation, and inhibition of the acetylcholine response as well as a means to normalize to the maximum acetylcholine response.
Either an FDSS (Hamamatsu) or Panoptic (WaveFront Biosciences) kinetic imaging plate reader was used for assay execution and measurement of calcium flux. After establishing baseline fluorescence, test compounds (20 µL) were added to the cells using the reader’s integrated pipettor and allowed to equilibrate for 140 seconds before addition of the EC20 concentration of acetylcholine (10 µL) along with vehicle in selected DMSO-only wells in the outer two columns. The EC80 concentration of acetylcholine (10 µL) was added 125 seconds after the EC20 addition along with ECmax concentration in the wells receiving vehicle in the second addition. The raw fluorescence data from each well was normalized to the corresponding initial fluorescence reading (static ratio). The maximum fluorescence value following each addition was determined and the minimum value within that same timeframe was subtracted for each well then normalized to the average of the ECmax maximum-minimum response, providing a %AChmax value for each addition for each well. The single point values represent mean values determined within the EC80 addition timeframe obtained from at least three independent determinations performed in triplicate or greater (error bars represent +/- SEM) unless otherwise specified.
Further characterization of competitive and non-competitive inhibitor compounds (compound potency and mAChR subtype-selectivity) was performed on the FDSS with calcium mobilization assays performed as previously described (Marlo et al., 2009; Brady et al., 2008) and in a format similar to that described above using the same reagents. CHO cells stably expressing hM1, hM2/Gqi5, hM3, hM4/Gqi5, hM5, rM1, rM2/Gqi5, rM3, rM4/Gqi5, or rMs were plated in the manner described above. A ten-point concentration range of test compound was serial diluted in assay buffer to 2X final concentration and acetylcholine was diluted in assay buffer to 5X of the EC20 and EC80 concentrations, determined empirically and 5X maximal (2 mM final concentration) stock concentrations. FDSS protocols were carried out as described above; the static ratio was calculated and the minimum response subtracted from the maximum response within the timeframe of each addition. […]

IC50	EC80 MIN	SMILES
4960 nM	3%	CC1Cc2cc(S(=O)(=O)N3CC[C@@H](C(=O)Nc4ccc5scnc5c4)C3)ccc2O1 (mixture of isomers) [Compound 88, (3R)-N-(benzo[d]thiazol-5-yl)-1-((2-methyl-2,3-dihydrobenzofuran-5-yl)sulfonyll)pyrrolidine-3-carboxamide]
42 nM	2%	CC1COc2ccc(S(=O)(=O)N3CC[C@@H](C(=O)Nc4ccc5scnc5c4)C3)cc21 (mixture of isomers) [Compound 132, (3R)-N-(benzo[d]thiazol-5-yl)-1-((3-methyl-2,3-dihydrobenzofuran-5-yl)sulfonyl)pyrrolidine-3-carboxainide]
156 nM	3%	CC1COc2ccc(S(=O)(=O)N3C[C@H](C(=O)Nc4ccc5scnc5c4)[C@@H](C)C3)cc21 (mixture of isomers) [Compound 133, (3R,4R)-N-(benzo[d]thiazol-5-yl)-4-methyl-1-((3-methyl-2,3-dihydrobenzofuran-5-yl)sulfonyl)pyrrolidine-3-carboxamide]
74 nM	2%	Cc1cc2c(cc1S(=O)(=O)N1CC[C@@H](C(=O)Nc3ccc4scnc4c3)C1)C(C)CO2 (mixture of isomers) [Compound 146, (3R)-N-(benzo[d]thiazol-5-yl)-1-((3,6-dimethyl-2,3-dihydrobenzofuran-5-yl)sulfonyl)pyrrolidinc-3-carboxamide]
47 nM	2%	O=C(Nc1ccc2scnc2c1)C1CCN(S(=O)(=O)c2ccc3c(c2)CCO3)C1 (racemic) [Compound 15, (rac)-N-(benzo[d]thiazol-5-yl)-1-((2,3-dihydrobcnzofuran-5-yl)sulfonyl)pyrrolidine-3-carboxamide]
248 nM	2%	O=C(Nc1ccc2scnc2c1)C12CC1CN(S(=O)(=O)c1ccc3c(c1)CCO3)C2 (racemic) [Compound 23, (rac)-N-(benzo[d]thiazol-5-yl)-3-((2,3-dihydrobenzofuran-5-yl)sulfonyl)-3-azabicyclo[3.1.0]hexane-1-carboxamide]
> 10000 nM	29%	O=C(Nc1ccc2scnc2c1)C1CCN(S(=O)(=O)c2cccnc2)C1 (racemic) [Compound 38, (rac)-N-(benzo[d]thiazol-5-yl)-1-(pyridin-3-ylsulfonyl)pyrrolidine-3-carboxamide]
> 10000 nM	53%	O=C(Nc1ccc2scnc2c1)C12CC1CN(S(=O)(=O)c1cccnc1)C2 (racemic) [Compound 40, (rac)-N-(benzo[d]thiazol-5-yl)-3-(pyridin-3-ylsulfonyl)-3-azabicyclo[3.1.0]hexane-1-carboxamide]
202 nM	3%	O=C(Nc1ccc2scnc2c1)C12CC1CN(S(=O)(=O)c1cc3c(cc1F)OCC3)C2 (racemic) [Compound 43, (rac)-N-(benzo[d]thiazol-5-yl)-3-((6-fluoro-2,3-dihydrobenzofuran-5-yl)sulfonyl)-3-azabicyclo[3.1.0]hexane-1-carboxamide]
2280 nM	2%	O=C(Nc1ccc2scnc2c1)[C@H]1CCN(S(=O)(=O)c2ccc3c(c2)CCO3)C[C@H]1F (racemic) [Compound 69, cis-(rac)-N-(benzo[d]thiazol-5-yl)-1-((2,3-dihydrobenzofuran-5-yl)sulfonyl)-3-fluoropiperidine-4-carboxamide]
> 10000 nM	63%	O=C(Nc1ccc2scnc2c1)[C@H]1CCN(S(=O)(=O)c2ccc3ncsc3c2)C[C@H]1F (racemic) [Compound 70, cis-(rac)-N-(benzo[d]|thiazol-5-yl-1)-1-(benzo[d]thiazol-6-ylsulfonyl)-3-fluoropiperidine-4-carboxamide]
> 10000 nM	20%	O=C(Nc1ccc2scnc2c1)[C@H]1CCN(S(=O)(=O)c2ccc(Cl)nc2)C[C@H]1F (racemic) [Compound 71, cis-(rac)-N-(benzo[d]thiazol-5-yl)-1-((6-chloropyridin-3-yl)sulfonyl)-3-fluoropiperidine-4-carboxamide]
> 10000 nM	13%	O=C(Nc1ccc2scnc2c1)[C@H]1CCN(S(=O)(=O)c2cccnc2)C[C@H]1F (racemic) [Compound 72, cis-(rac)-N-(benzo[d]thiazol-5-yl)-3-fluoro-1-(pyridin-3-ylsulfonyl)piperidine-4-carboxamide]
> 10000 nM	45%	Cc1nn(C)cc1S(=O)(=O)N1CC[C@H](C(=O)Nc2ccc3scnc3c2)[C@H](F)C1 (racemic) [Compound 73, cis-(rac)-N-(benzo[d]thiazol-5-yl)-1-((1,3-dimethyl-1H-pyrazol-4-yl)sulfonyl)-3-fluoropiperidine-4-carboxamide]
4260 nM	18%	O=C(Nc1ccc2scnc2c1)[C@H]1CCN(S(=O)(=O)c2cccc3nsnc23)C[C@H]1F (racemic) [Compound 75, cis-(rac)-1-(benzo[c][1,2,5]thiadiazol-4-ylsulfonyl)-N-(benzo[d]thiazol-5-yl)-3-fluoropiperidine-4-carboxamide]
209 nM	2%	O=C(Nc1ccc2scnc2c1)[C@H]1CCN(S(=O)(=O)c2ccc3ncsc3c2)C[C@@H]1F (racemic) [Compound 77, trans-(rac)-N-(benzo[d]thiazol-5-yl)-1-(benzo[d]thiazol-6-ylsulfony1)-3-fluoropiperidine-4-carboxamide]
139 nM	2%	O=C(Nc1ccc2scnc2c1)[C@H]1CCN(S(=O)(=O)c2ccc(Cl)nc2)C[C@@H]1F (racemic) [Compound 79, trans-(rac)-N-(benzo[d]thiazol-5-yl)-1-((6-chloropyridin-3-yl)sulfonyl)-3-fluoropiperidine-4-carboxamide]
312 nM	3%	Cc1nn(C)cc1S(=O)(=O)N1CC[C@H](C(=O)Nc2ccc3scnc3c2)[C@@H](F)C1 (racemic) [Compound 80, trans-(rac)-N-(benzo[d]thiazol-5-yl)-1-((1,3-dimethyl-1H-pyrazol-4-yl)sulfonyl1)-3-fluoropiperidine-4-carboxamide]
500 nM	5%	O=C(Nc1ccc2scnc2c1)[C@H]1CCN(S(=O)(=O)c2cccc3nsnc23)C[C@@H]1F (racemic) [Compound 81, trans-(rac)-1-(benzo[c][1,2,5]thiadiazol-4-ylsulfonyl)-N-(benzo[d]thiazol-5-yl)-3-fluoropiperidine-4-carboxamide]
95 nM	2%	O=C(Nc1ccc2scnc2c1)[C@H]1CCN(S(=O)(=O)c2cccnc2)C[C@@H]1F (racemic) [Compound 82, trans-(rac)-N-(benzo[d]thiazol-5-yl)-3-fluoro-1-(pyridin-3-ylsulfonyl)piperidine-4-carboxamide]
